The values below are quoted from earlier work in patent US20110294763A1, “TRANSDERMAL DELIVERY OF DICOLFENAC, CARBAMAZEPINE AND BENZYDAMINE” (priority 2009, published 2011).

On to `CN(C)CCCOc1nn(Cc2ccccc2)c2ccccc12` [Benzydamine base], for which the Solubility in water result is on record as “insoluble”.
